This experiment deals with VA-ES-BJ. Description: relative viability vs DMSO control (72 h) (fraction); higher = more viable cells. The essentials:
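After seeding at densities set for 80–90% confluence in 384-well plates, sarcoma cell lines waited 24 h before 2.5 µl of serially diluted compound was added. Source plates held 10 mM down to 0.0002 mM. Plates were incubated 72 h at 37 °C with 5% CO2, with 0.1% DMSO vehicle and a 5 µM positive control, and relative viability was taken from ATPLite as percent growth averaged over up to triplicate wells, with 1 set as full and 0 as none.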

Four compounds from the supplement of paper PMC10883282 can be followed below.

± gives the standard deviation of the averaged measurements.

For the compound `C[C@]1(O)C[C@@H](c2nc(-c3ccc4ccc(-c5ccccc5)nc4c3)c3c(N)nccn32)C1` [Linsitinib], the relative viability by setting is: (0.00017 µM) 1.08 ± 0.025; (0.00051 µM) 1.07 ± 0.04; (0.00152 µM) 1.05 ± 0.05; (0.00457 µM) 1.06 ± 0.011; (0.01372 µM) 1.01 ± 0.02; (0.04115 µM) 0.989 ± 0.021. The relative viability runs as follows: (0.1235 µM) 0.987 ± 0.052; (0.3704 µM) 0.966 ± 0.042; (1.111 µM) 0.937 ± 0.05; (3.333 µM) 0.871 ± 0.11; (10 µM) 0.74 ± 0.036.
Regarding `C=CC(=O)N1CCC([C@@H]2CCNc3c(C(N)=O)c(-c4ccc(Oc5ccccc5)cc4)nn32)CC1` [Zanubrutinib], the relative viability reads like this: (0.00017 µM) 1.02 ± 0.011; (0.00051 µM) 1.01 ± 0.012; (0.00152 µM) 1.01 ± 0.03; (0.00457 µM) 0.996 ± 0.039; (0.01372 µM) 0.982 ± 0.029; (0.04115 µM) 1.04 ± 0.028. Besides, the relative viability is, setting by setting: (0.1235 µM) 0.997 ± 0.047; (0.3704 µM) 0.998 ± 0.054; (1.111 µM) 0.95 ± 0.025; (3.333 µM) 0.912 ± 0.048; (10 µM) 0.836 ± 0.013.
`Cn1cc(-c2cc3c(N4CCN(c5ncc([C@@](C)(N)c6ccc(F)cc6)cn5)CC4)ncnn3c2)cn1` [Avapritinib]: the relative viability (0.00017 µM) is 1.02 ± 0.013; the relative viability (0.00051 µM) is 1.01 ± 0.025; the relative viability (0.00152 µM) came to 1 ± 0.013; the relative viability (0.00457 µM) was found to be 1.01 ± 0.03; the relative viability (0.01372 µM) was 0.998 ± 0.057; the relative viability (0.04115 µM) was 0.993 ± 0.023. The relative viability is, setting by setting: (0.1235 µM) 0.971 ± 0.039; (0.3704 µM) 0.98 ± 0.031; (1.111 µM) 0.975 ± 0.011; (3.333 µM) 0.956 ± 0.034; (10 µM) 0.979 ± 0.028.
In turn, `CC(=O)Nc1cccc(-n2c(=O)n(C3CC3)c(=O)c3c(Nc4ccc(I)cc4F)n(C)c(=O)c(C)c32)c1` [Trametinib] displayed a relative viability (0.00017 µM) of 1.08 ± 0.043; a relative viability (0.00051 µM) of 1.04 ± 0.026; a relative viability (0.00152 µM) of 1.02 ± 0.034; a relative viability (0.00457 µM) of 0.961 ± 0.038; a relative viability (0.01372 µM) of 0.871 ± 0.028; a relative viability (0.04115 µM) of 0.811 ± 0.032. Further, the relative viability was determined as 0.738 ± 0.029 (0.1235 µM); 0.656 ± 0.022 (0.3704 µM); 0.628 ± 0.018 (1.111 µM); 0.604 ± 0.019 (3.333 µM); 0.572 ± 0.016 (10 µM).
